The test system of series [1] is RAW264.7. As to the kind of experiment: Cytotoxicity activity mouse RAW264.7 cells assessed as reduction in cell viability at 10 uM incubated for 48 hrs by MTT assay. The series is classed as toxicity, cell-based. Conditions: raw264.7, 48 h. On the technique in general: Tetrazolium assays rely on reduction of a dye to a coloured formazan, in cell work by metabolically active cells.

For series [2], the target named is T1, Prostaglandin G/H synthase 2 (Homo sapiens) (UniProt P35354).
T1 sequence (whole entry): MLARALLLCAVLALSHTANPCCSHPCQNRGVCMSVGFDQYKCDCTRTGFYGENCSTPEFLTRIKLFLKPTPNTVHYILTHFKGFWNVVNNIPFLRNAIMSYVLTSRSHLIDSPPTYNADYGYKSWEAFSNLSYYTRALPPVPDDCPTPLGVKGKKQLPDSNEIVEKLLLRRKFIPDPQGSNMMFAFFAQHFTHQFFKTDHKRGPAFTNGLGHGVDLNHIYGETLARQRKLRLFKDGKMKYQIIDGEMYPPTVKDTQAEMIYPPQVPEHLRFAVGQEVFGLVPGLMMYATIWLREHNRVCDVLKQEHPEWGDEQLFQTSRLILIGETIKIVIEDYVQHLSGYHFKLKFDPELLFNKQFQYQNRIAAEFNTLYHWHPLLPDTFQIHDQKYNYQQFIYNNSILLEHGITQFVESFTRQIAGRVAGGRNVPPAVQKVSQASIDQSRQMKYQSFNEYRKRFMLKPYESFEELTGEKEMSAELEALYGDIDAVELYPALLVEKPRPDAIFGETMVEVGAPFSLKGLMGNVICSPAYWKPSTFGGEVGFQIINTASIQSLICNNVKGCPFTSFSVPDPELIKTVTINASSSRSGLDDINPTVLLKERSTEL
As to the kind of experiment: Inhibition of human recombinant COX-2 using arachidonic acid as substrate at 10 uM pretreated for 5 mins followed by substrate addition and measured after 2 mins by fluorescence based analysis relative to control. As to conditions: time 7.0 min.

For series [3], the system named is RAW264.7. Briefly: Cytotoxicity activity mouse RAW264.7 cells assessed as decrease in survival rate at 50 uM incubated for 48 hrs by MTT assay. In kind it is toxicity, cell-based. Conditions: raw264.7, 48 h.

A value given as a limit tells only on which side of the number the result lay.

Turning to `COc1cccc(C2=Nn3c(Cc4ccccc4Nc4c(Cl)cccc4Cl)nnc3SC2)c1`, the Activity entry in series [1] is “Non-Toxic”.
A word on the inhibition: it is the share of the control response that was lost under treatment. With `Clc1ccc(CSc2nnc(Cc3ccccc3Nc3c(Cl)cccc3Cl)o2)cc1`, the Activity result in series [1] is listed as “Non-Toxic”. For the same compound, the inhibition in series [2] was less than 30%.
For `Clc1cccc(Cl)c1Nc1ccccc1Cc1nnc(SC2CCCCC2)o1`, in series [1], the Activity result is “Non-Toxic”.
For `Clc1ccccc1CSc1nnc(Cc2ccccc2Nc2c(Cl)cccc2Cl)o1`, the Activity result in series [1] is listed as “Non-Toxic”. In series [2], the inhibition was less than 30%.
As for `CCCCSc1nnc(Cc2ccccc2Nc2c(Cl)cccc2Cl)o1`, the Activity result in series [1] is listed as “Non-Toxic”.
Consider `O=C(Cc1ccccc1Nc1c(Cl)cccc1Cl)NN1C(=O)CCC1=O`, for which the Activity entry in series [1] is “Non-Toxic”.
On the same count and under the same terms, for `Clc1cccc(Cl)c1Nc1ccccc1Cc1nnc(SCC2CCCCC2)o1` the value was “Non-Toxic”.
Consider `CCCSc1nnc(Cc2ccccc2Nc2c(Cl)cccc2Cl)o1`, for which, in series [1], the Activity entry is recorded as “Non-Toxic”.
Turning to `Clc1cccc(C2=Nn3c(Cc4ccccc4Nc4c(Cl)cccc4Cl)nnc3SC2)c1`, the Activity result in series [1] was “Non-Toxic”; in series [3] it was “Toxic”.
On to `Cc1ccccc1CSc1nnc(Cc2ccccc2Nc2c(Cl)cccc2Cl)o1`, for which, in series [1], the Activity result is recorded as “Non-Toxic”.
Same read-out and setting: to `O=[N+]([O-])c1ccccc1C1=Nn2c(Cc3ccccc3Nc3c(Cl)cccc3Cl)nnc2SC1` belongs “Non-Toxic”.
Still for that read-out and setting: for `CCSc1nnc(Cc2ccccc2Nc2c(Cl)cccc2Cl)o1` the value was “Non-Toxic”; for `COc1ccc(CSc2nnc(Cc3ccccc3Nc3c(Cl)cccc3Cl)o2)cc1`, “Non-Toxic”.
Same read-out and setting: to `Cc1cccc(CSc2nnc(Cc3ccccc3Nc3c(Cl)cccc3Cl)o2)c1` belongs “Non-Toxic”.
On to `Clc1cccc(Cl)c1Nc1ccccc1Cc1nnc2n1N=C(c1cccc(Br)c1)CS2`, for which the Activity result in series [1] is “Non-Toxic”; in series [3], “Toxic”.
Regarding `Clc1cccc(Cl)c1Nc1ccccc1Cc1nnc(SCc2ccccc2)o1`, the Activity result in series [1] is listed as “Non-Toxic”.
`Clc1ccc(C2=Nn3c(Cc4ccccc4Nc4c(Cl)cccc4Cl)nnc3SC2)cc1`: the values for the Activity result in series [1] and in series [3] were “Non-Toxic” and “Toxic”, respectively.
Regarding `Fc1ccc(CSc2nnc(Cc3ccccc3Nc3c(Cl)cccc3Cl)o2)c(F)c1`, the Activity entry in series [1] was “Non-Toxic”.
For `Clc1cccc(Cl)c1Nc1ccccc1Cc1nnc(SCc2ccc(Br)cc2)o1`, in series [1], the Activity entry is on record as “Non-Toxic”.
The same measure, in the same setting: to `CSc1nnc(Cc2ccccc2Nc2c(Cl)cccc2Cl)o1` belongs “Non-Toxic”.
Same read-out and setting: to `Fc1ccc(CSc2nnc(Cc3ccccc3Nc3c(Cl)cccc3Cl)o2)cc1` belongs “Non-Toxic”; to `Clc1cccc(Cl)c1Nc1ccccc1Cc1nnc2n1N=C(c1ccccc1Br)CS2`, “Non-Toxic”.
Consider `CC(C)Sc1nnc(Cc2ccccc2Nc2c(Cl)cccc2Cl)o1`, for which, in series [1], the Activity entry was “Non-Toxic”.
Consider `Fc1ccccc1CSc1nnc(Cc2ccccc2Nc2c(Cl)cccc2Cl)o1`, for which the Activity result in series [1] is listed as “Non-Toxic”.
Regarding `Fc1ccc(C2=Nn3c(Cc4ccccc4Nc4c(Cl)cccc4Cl)nnc3SC2)cc1`, the results for the Activity result in series [1] and in series [3] were “Non-Toxic” and “Toxic”, respectively.
Take `N#Cc1ccc(CSc2nnc(Cc3ccccc3Nc3c(Cl)cccc3Cl)o2)cc1`: the Activity result in series [1] was “Non-Toxic”.
Turning to `Fc1cccc(CSc2nnc(Cc3ccccc3Nc3c(Cl)cccc3Cl)o2)c1`, the Activity entry in series [1] is “Non-Toxic”.
For `Cc1ccc(CSc2nnc(Cc3ccccc3Nc3c(Cl)cccc3Cl)o2)cc1`, in series [1], the Activity entry is listed as “Non-Toxic”.
Still for that read-out and setting: to `Clc1cccc(Cl)c1Nc1ccccc1Cc1nnc2n1N=C(c1ccccc1)CS2` belongs “Non-Toxic”.
Take `Clc1cccc(Cl)c1Nc1ccccc1Cc1nnc2n1N=C(c1ccc(Br)cc1)CS2`: the Activity result in series [1] was “Non-Toxic”.
For the compound `Clc1cccc(Cl)c1Nc1ccccc1Cc1nnc(SCc2ccncc2)o1`, the Activity entry in series [1] was “Non-Toxic”; in series [3] it was “Toxic”.
In the case of `O=C(Cc1ccccc1Nc1c(Cl)cccc1Cl)NN1C(=O)c2ccccc2C1=O`, the Activity entry in series [1] is reported as “Non-Toxic”; in series [3], “Toxic”.
In the case of `Fc1cccc(C2=Nn3c(Cc4ccccc4Nc4c(Cl)cccc4Cl)nnc3SC2)c1`, the Activity result in series [1] is listed as “Non-Toxic”.
As to `Clc1cccc(Cl)c1Nc1ccccc1Cc1nnc(SCc2cccc(Br)c2)o1`, the Activity entry in series [1] is given as “Non-Toxic”.
As for `COc1ccc(C2=Nn3c(Cc4ccccc4Nc4c(Cl)cccc4Cl)nnc3SC2)cc1`, the Activity entry in series [1] is listed as “Non-Toxic”.
Turning to `Clc1cccc(CSc2nnc(Cc3ccccc3Nc3c(Cl)cccc3Cl)o2)c1`, the Activity entry in series [1] is “Non-Toxic”. Further, the inhibition in series [2] is less than 30%.
With `O=[N+]([O-])c1ccc(C2=Nn3c(Cc4ccccc4Nc4c(Cl)cccc4Cl)nnc3SC2)cc1`, in series [1], the Activity entry is recorded as “Non-Toxic”.

The record behind these values is ChEMBL document CHEMBL5505985 (Eur J Med Chem, 2024).
